Results: US20130303788A1, “METHOD OF PRODUCING BIPHENOLIC COMPOUND, NOVEL BIPHENYL COMPOUND AND SYNTHESIS METHOD THEREOF, AND PHARMACEUTICAL COMPOSITION FOR TREATING PARKINSON'S DISEASE” (Tzu Chi University, priority 2012, published 2013)

Assays:
[1] = tested on: SH-SY5Y human neuroblastoma cells; assay: Effects on oxidative stress (TBHP or CHP), MTT assay; type: cell-based; conditions: for prevention of cell death (relative cell viability) after exposure to CHP / prevention of cell death (relative cell viability) after exposure to TBHP: 10 μM for 30 minutes, vs pathological control, FIG. 9; for prevention of cell death (relative cell viability) after exposure to CHP: then CHP 300 μM for 3 hours; for prevention of cell death (relative cell viability) after exposure to TBHP: then TBHP 300 μM for 3 hours
Protocol: (§1) 3-(4,5-Dimethylthiazol-2-yl)-2,5-diphenyltetrazolium bromide (MTT) assay was conducted generally as follows. A MTT solution was added to culture of the cells in the respective well so that a MTT concentration of 0.5 mg/mL was reached, followed by cultivation for 4 hours. The liquid in the respective well was removed, and dimethylsulfoxide (DMSO) was added into the respective well to dissolve formazan dye. Absorbance of the mixture in the respective well at 570 nm (OD570) was measured using an OPTImax microplate reader (Molecular Devices).
The SH-SY5Y human neuroblastoma cells were respectively treated with products 1, 2, 3, 4, 5, 7, and 3,3′-diallyl-biphenyl-4,4′-diol (compound 55) (10 μM) for 30 minutes. 3,3′-diallyl-biphenyl-4,4′-diol (compound 55) was prepared from commercially available 4,4′-biphenol (compound 54) generally according to the method as described in Ablard, F. et al., Bioorg. Med. Chem. Lett. 2007, 17, 4428. Subsequently, the SH-SY5Y human neuroblastoma cells were exposed to cumene hydroperoxide (CHP) or tert-butyl hydroperoxide (TBHP) (300 μM, Riedel-de Haen) for 3 hours after the treatment with the respective biphenolic compound of formula (I).
(§2) Cell viability was evaluated as follows. The SH-SY5Y human neuroblastoma cells were subjected to the MTT assay as described in section 1 of General Procedures. The relative cell viability (%) was calculated by substituting the absorbance into the following formula:
(§3) where D=relative cell viability • E=OD570 of the pathological control, or the SH-SY5Y human neuroblastoma cells treated with the respective biphenolic compound of formula (I) • F=OD570 of the normal control The obtained data were subjected to the statistical analysis as described in section 5 of General Procedures.

[2] = tested on: SH-SY5Y human neuroblastoma cells; assay: Effects on MPP+ neurotoxicity, MTT assay; type: cell-based; conditions: 10 μM or 30 μM; MPP+ 1 mM for 24 hours; FIG. 10
Protocol: as §1
SH-SY5Y human neuroblastoma cells were exposed to neurotoxic 1-methyl-4-phenylpyridinium (MPP^+) (1 mM) for 24 hours, while the same were treated with the respective one of products 1, 2, 3, 4, 5, 7, and 3,3′-diallyl-biphenyl-4,4′-diol (compound 55) (10 μM or 30 μM).
as §2
as §3, with “G=relative” for “D=relative”, “H=OD570” for “E=OD570”, “I=OD570” for “F=OD570”

inflammatory pain = conditions: Lin Yi-Ruu et al. (2007); cited from earlier work
[3] = tested on: excitotoxicity induced by excitatory amino acids; conditions: Lin Yi-Ruu et al. (2006); cited from earlier work
[4] = tested on: TH (Tyrosine Hydroxylase); assay: TH expression level (TH immunohistochemistry) in 6-OHDA mouse model of PD; type: in vivo, NMRI mice; conditions: i.p. 14 consecutive days starting Day 7, Day 21 after 6-OHDA, 16
Protocol: The respective NMRI mouse was deeply anaesthetized with thiopental (50 mg/kg, intraperitoneally). The respective NMRI mouse was perfused transcardially with a heparin solution (0.05% heparin in 0.1 M PBS), and was subsequently perfused with 100 mL of ice-cold fixative (4% paraformaldehyde in 0.1 M PBS). The brain of the respective NMRI mouse was removed and was postfixed in the same ice-cold fixative for 12 hours, followed by dehydration in 30% sucrose in 0.1 M PBS. The brain was frozen and was subjected to tissue slicing. Serial coronal sections (a thickness of 20 μm) were cut on a freezing microtome and were placed in PBS. The sections were later processed for free-floating TH or iNOS immunohistochemistry.
The sections were rinsed three times with PBS (30 minutes for each time), were treated with 3% H2O2/10% methanol in PBS for 30 minutes for quenching the endogenous peroxidase activity, and were rinsed three times with PBS. After preincubation with 0.5% normal goat serum (NGS)/0.2% Triton in PBS, the sections were incubated with a primary antibody (anti-TH antibody or anti-iNOS antibody, 1:5000, Novus Biologicals, Inc., Littleton, Colo., USA) in 0.5% NGS/PBS at 4° C. for 16-18 hours. After being rinsed three times with PBS, the sections were incubated with a biotinylated goat anti-rabbit IgG (1:200) in PBS for 1 hour. Subsequently, the sections were rinsed three times with PBS and were stained with 0.05% diaminobenzidine/0.03% H2O2 in PBS for 5 minutes. The respective section was placed on a gelatin-coated slide, dehydrated through ascending concentrations of alcohol, and covered with a slipcover for observation under a light microscope.
The obtained data were subjected to the statistical analysis as described in section 5 of General Procedures. TH expression level in the striatum was determined according to the method as described in section 4 of General Procedures.
TH expression level in the striatum and the substantia nigra (SN), and iNOS expression level in the striatum were determined according to the method as described in section 4 of General Procedures on Day 21 after the injection of 6-OHDA or the vehicle.
In addition, the optical density regarding the lesioned and unlesioned sites in the striatum and SN of the NMRI mice (e.g., the sham operated control, the pathological control, and the NMRI mice treated with product 1) was determined from the obtained photomicrographs illustrating TH expression level via ImageJ software (National Institutes of Health). The relative optical density was calculated using the following formula:
where J=relative optical density • K=optical density of the lesioned site • L=optical density of the unlesioned site

[5] = tested on: mouse model of PD (6-OHDA unilateral striatal lesion); assay: Apomorphine-induced rotation test in 6-OHDA mouse model of PD; type: in vivo, NMRI mice
Protocol: The respective NMRI mouse was anesthetized with ketamine ([…], intraperitoneally). Subsequently, the respective NMRI mouse was placed into a stereotactic frame with nose and ear bars specially designed for mice. 6-hydroxydopamine (6-OHDA) was injected with saline containing 0.02% ascorbic acid (as a vehicle) into the right striatum of the respective NMRI mouse so that unilateral striatal lesion was induced (i.e., damage to dopaminergic neurons in the unilateral striatum was induced). The injection was conducted at a rate of 1 μL/minute using a Hamilton syringe at the following coordinates: AP: −0.9 mm; ML: −1.9 mm; DV: −2.2 mm with respect to bregma, and a final dose of 15 μg was administered. The needle was left standing for 5 minutes after the injection was finished, and was slowly withdrawn.
The respective NMRI mouse was allowed to habituate to the ambient environment for 10 minutes before the apomorphine-induced rotation test was performed. Apomorphine was then injected intraperitoneally into the respective NMRI mouse at a dose of 0.5 mg/kg. The respective NMRI mouse was placed in a glass bowl with a diameter of 20 cm and was attached to an automatic rotometer (TSE, Bad Homburg, Germany) via a specially designed harness. Each circular movement exceeding 30° was recorded. The contralateral movements (toward the nonlesioned side) and ipsilateral movements (toward the lesioned side) of the NMRI mice were counted during a period of 60 minutes. The net rotation was calculated according to the following formula:
where A=net rotation • B=the total number of ipsilateral movements during the period of 60 minutes • C=the total number of contralateral movements during the period of 60 minutes 4. Determination of TH (Tyrosine Hydroxylase) Expression Level and iNOS (Inducible Nitric Oxide Synthase) Expression Level: […]
6-OHDA was injected into NMRI mice according to the method as described in section 2 of General procedures. Product 1 or product 2 was administered intraperitoneally to the respective NMRI mouse at a dose of 5 mg/kg, 1 mg/kg, 0.5 mg/kg, 0.1 mg/kg, or 0.05 mg/kg for 14 consecutive days, starting on Day 7 after the 6-OHDA injection. NMRI mice into which a vehicle (saline containing 0.02% ascorbic acid) was injected (generally according to the method as described in section 2 of General Procedures, except that 6-OHDA was not injected), and which were not treated with product 1 or product 2 after the injection of the vehicle, served as a sham operated control. NMRI mice into which 6-OHDA was injected and which were not treated with product 1 or product 2 after the 6-OHDA injection served as a pathological control. The rotational behavior of the NMRI mice was evaluated using the apomorphine-induced rotation test as described in section 3 of General Procedures on Days 7, 14, and 21 after the 6-OHDA injection.

| SMILES | prevention of cell death (relative cell viability) after exposure to CHP [1] | prevention of cell death (relative cell viability) after exposure to TBHP [1] | concentration dependence of alleviation of MPP+ cytotoxicity [2] | other results |
| --- | --- | --- | --- | --- |
| C=CCc1cc(-c2cccc(O)c2CC=C)ccc1O [product 7, 2,3′-Diallyl-biphenyl-3,4′-diol] | significantly prevented cell death | significantly prevented cell death | alleviated the cytotoxicity of MPP^+ in a concentration-dependent manner |  |
| C=CCc1ccc(O)c(-c2ccc(O)c(CCC)c2)c1 [product 4, 5-Allyl-3′-propyl-biphenyl-2,4′-diol] | significantly prevented cell death | significantly prevented cell death | alleviated the cytotoxicity of MPP^+ in a concentration-dependent manner |  |
| CCCc1ccc(O)c(-c2ccc(O)c(CCC)c2)c1 [product 3, 5,3′-Dipropyl-biphenyl-2,4′-diol] | significantly prevented cell death | significantly prevented cell death | alleviated the cytotoxicity of MPP^+ in a concentration-dependent manner |  |
| C=CCc1ccc(O)c(-c2cc(CC=C)ccc2O)c1 [magnolol, reference compound] |  |  |  | alleviation of inflammatory pain in an animal model (inflammatory pain): effective in alleviating inflammatory pain; neuroprotective effects via anti-oxidative abilities and antagonist actions against excitotoxicity [3]: able to exert neuroprotective effects |
| C#CCc1ccc(O)c(-c2ccc(O)c(CC=C)c2)c1 [product 5, 3′-Allyl-5-prop-2-ynyl-biphenyl-2,4′-diol] | significantly prevented cell death | significantly prevented cell death | alleviated the cytotoxicity of MPP^+ in a concentration-dependent manner |  |
| C=CCc1cc(-c2cc(CCC)ccc2O)ccc1O [product 2, 3′-Allyl-5-propyl-biphenyl-2,4′-diol] | significantly prevented cell death | significantly prevented cell death | alleviated the cytotoxicity of MPP^+ in a concentration-dependent manner | rank among the tested biphenolic compounds in preventing cell death, CHP ([1]; 10 μM, CHP 300 μM 3 hours): the most effective in preventing cell death among them; rank among the tested biphenolic compounds in preventing cell death, TBHP ([1]; 10 μM, TBHP 300 μM 3 hours): the most effective in preventing cell death among them; loss of TH-ir fibers in the striatum, subchronic post-treatment ([4]; FIGS. 14, 15(A)): significantly alleviated the loss of TH-ir fibers; loss of TH-ir fibers in the substantia nigra (SN), subchronic post-treatment ([4]; FIGS. 14, 15(B)): significantly alleviated the loss of TH-ir fibers; unilateral rotations (apomorphine-induced), subchronic post-treatment, 0.1 mg/kg ([5]; 0.1 mg/kg i.p., 14 consecutive days starting Day 7 after 6-OHDA, FIG. 13): significantly inhibited unilateral rotations; unilateral rotations (apomorphine-induced), subchronic post-treatment, 0.5 mg/kg ([5]; 0.5 mg/kg i.p., 14 consecutive days starting Day 7 after 6-OHDA, FIG. 13): significantly inhibited unilateral rotations; unilateral rotations (apomorphine-induced), subchronic post-treatment, 1 mg/kg ([5]; 1 mg/kg i.p., 14 consecutive days starting Day 7 after 6-OHDA, FIG. 13): significantly inhibited unilateral rotations; restoring activity against neurotoxin-induced motor dysfunction compared with product 1 ([5]; subchronic post-treatment, 14 days starting Day 7 after 6-OHDA): more potent restoring activity |
| C=CCc1cc(-c2ccc(O)c(CC=C)c2)ccc1O [compound 55, 3,3′-diallyl-biphenyl-4,4′-diol] | significantly prevented cell death | significantly prevented cell death |  |  |
